Measurements: paper PMC6007841 (Journal of medicinal chemistry, 2018)
“Also recorded” adds a separate entry of the source. Where two headings read alike, the source gives them in different places. Bridge positions count the residues as written; N and C are the ends. Ends that are not written are not given here.

What was measured:
[1] = test system: MC1R; conditions: B16 cells, cited from earlier work
[2] = test system: MC1R; conditions: cited from earlier work
[3] = target: T1, hMC4R (Homo sapiens, UniProt P32245); assay: Competitive displacement binding, [125I]-NDP-MSH, hMC4R; conditions: 100 μM, stably expressing HEK293 cells, 1 h incubation
[4] = target: T2, hMC1R (Homo sapiens, UniProt Q01726); conditions: transiently transfected HEK293 cells, Eu-NDP-MSH, 2 h incubation; cited from earlier work
[5] = target: mMC1R (Mus musculus, UniProt Q01727); assay: cAMP AlphaScreen agonist assay, mMC1R; conditions: mMC1R; up to 100 μM; HEK293 cells, cAMP
[6] = target: mMC5R (Mus musculus, UniProt P41149); assay: cAMP AlphaScreen agonist assay, mMC5R; conditions: mMC5R; up to 100 μM; HEK293 cells, cAMP
[7] = test system: male Wistar rats; conditions: ad libitum; adult male Wistar rats; up to 2 nmol; cited from earlier work
[8] = target: T1, hMC4R; conditions: transiently transfected HEK293 cells, Eu-NDP-MSH, 2 h incubation; cited from earlier work
[9] = target: T1, hMC4R; assay: cAMP AlphaScreen agonist assay, hMC4R; conditions: hMC4R; up to 100 μM; HEK293 cells, cAMP
[10] = test system: MC1R; conditions: primary melanocytes, cited from earlier work
[11] = target: T2, hMC1R; conditions: human MC1R; HEK293 cells; cited from earlier work
[12] = target: T2, hMC1R; assay: cAMP AlphaScreen agonist assay, hMC1R; conditions: hMC1R; up to 100 μM; HEK293 cells, cAMP
[13] = test system: male Wistar rats; conditions: 7 μg (1.2 nmol) ICV at the onset of a 24 h fast, vs vehicle; cited from earlier work

T2 sequence (Q01726 whole entry): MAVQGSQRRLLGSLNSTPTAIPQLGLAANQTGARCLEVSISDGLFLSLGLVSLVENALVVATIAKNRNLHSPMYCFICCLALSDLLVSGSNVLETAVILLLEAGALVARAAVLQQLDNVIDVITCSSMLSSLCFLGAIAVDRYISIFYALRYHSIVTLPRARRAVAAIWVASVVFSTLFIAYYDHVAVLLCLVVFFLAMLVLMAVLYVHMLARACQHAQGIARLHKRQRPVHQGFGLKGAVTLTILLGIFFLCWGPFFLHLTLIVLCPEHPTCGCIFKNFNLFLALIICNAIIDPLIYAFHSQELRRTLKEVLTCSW
T1 sequence (P32245 whole entry): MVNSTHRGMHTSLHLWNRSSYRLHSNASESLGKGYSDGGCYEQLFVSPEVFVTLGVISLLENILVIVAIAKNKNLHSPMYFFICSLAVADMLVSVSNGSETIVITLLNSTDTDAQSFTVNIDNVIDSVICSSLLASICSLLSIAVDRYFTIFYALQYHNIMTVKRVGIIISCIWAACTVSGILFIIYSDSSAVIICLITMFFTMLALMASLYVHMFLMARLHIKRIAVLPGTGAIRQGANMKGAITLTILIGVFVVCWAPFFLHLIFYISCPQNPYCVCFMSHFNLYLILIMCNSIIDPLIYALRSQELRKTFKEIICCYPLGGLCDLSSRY
Sequence of mMC1R (Q01727 whole entry): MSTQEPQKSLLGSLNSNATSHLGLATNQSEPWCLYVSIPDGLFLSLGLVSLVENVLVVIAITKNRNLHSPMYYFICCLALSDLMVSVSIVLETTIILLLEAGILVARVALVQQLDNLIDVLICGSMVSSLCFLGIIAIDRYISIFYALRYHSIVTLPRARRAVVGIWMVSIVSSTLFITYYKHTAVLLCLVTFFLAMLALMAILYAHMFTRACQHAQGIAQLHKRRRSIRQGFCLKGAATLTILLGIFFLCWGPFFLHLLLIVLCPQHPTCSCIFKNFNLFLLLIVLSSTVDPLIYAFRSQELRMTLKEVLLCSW
Sequence of mMC5R (P41149 whole entry): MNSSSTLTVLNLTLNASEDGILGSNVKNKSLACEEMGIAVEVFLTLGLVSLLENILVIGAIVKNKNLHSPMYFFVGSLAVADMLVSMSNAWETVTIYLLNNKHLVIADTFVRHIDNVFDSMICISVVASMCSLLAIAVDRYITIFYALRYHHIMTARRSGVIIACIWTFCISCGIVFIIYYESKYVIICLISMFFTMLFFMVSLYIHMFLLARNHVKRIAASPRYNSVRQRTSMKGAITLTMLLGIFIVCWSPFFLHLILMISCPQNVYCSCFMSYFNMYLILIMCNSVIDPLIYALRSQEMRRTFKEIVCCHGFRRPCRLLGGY

GIINTLQKYYCRVRGGRCAVLSCLPKEEQIGKCSTRGRKCCRRKK (disulfide 11-40, 18-33, 23-41) [hBD3]
Effect on NDP-MSH induction of cAMP ([1]; 100 nM): lower the agonist induction of cAMP
cAMP signal ([1]; up to 100 nM): no cAMP signal
Effect on NDP-MSH induction of cAMP ([2]; HEK293 cells expressing the MC1R, 100 nM): lower the agonist induction of cAMP
cAMP response vs maximal response of 1 nM NDP-MSH ([2]; HEK293 cells expressing the MC1R, 300 nM): lower than the maximal response of 1 nM NDP-MSH
cAMP levels ([2]; HEK293 cells, 100 and 300 nM): dose dependent increase in cAMP levels
Displacement of radiolabeled NDP-MSH at 100 μM [3]: 50%
Binding affinity [4]: 42 nM
Agonist efficacy (in words) [5]: Full agonist activity
Agonist efficacy (in words) [6]: Full agonist activity
Food intake or body weight change [7]: does not result in a statistical change in food intake or body weight change
Binding affinity [8]: 110 nM
Agonist efficacy (in words) [9]: Full agonist activity
Effect on α-MSH induction of cAMP ([10]; 100 nM): lower the agonist induction of cAMP
cAMP signal ([10]; up to 100 nM): no cAMP signal
Binding affinity [11]: 13.8 nM
Agonist efficacy (in words) [12]: Full agonist activity
Body weight [13]: decreased weight gain; also recorded: slower return to pre-fast weight
Food intake [13]: decrease food intake; also recorded: significant decreases in food intake; also recorded: consumed less food
